These results are taken from ChEMBL document CHEMBL4622903, “Repurposing of antipsychotics perphenazine for the treatment of endometrial cancer” (Bioorg Med Chem Lett, 2020).

Each structure is given as a SMILES string. pIC50: −log10 of the molar value. The source made the active and inactive calls. The rule behind the calls is not given here. A value given as a limit tells only on which side of the number the result lay.

Data set [1] relates to Ishikawa. The data set can be described thus: Antiproliferative activity against human Ishikawa cells assessed as inhibition of cell viability by CCK8 assay. The data set is classed as functional, cell-based.
In data set [2] the test system is KLE. The data set can be described thus: Antiproliferative activity against human KLE cells assessed as inhibition of cell viability by CCK8 assay. The data set is classed as functional, cell-based. For orientation: Tetrazolium dyes change colour on reduction, which living cells bring about.
The subject of data set [3] is HEC-1-A. The data set is described as follows: Antiproliferative activity against human Hec1A cells assessed as inhibition of cell viability by CCK8 assay. Format: functional, cell-based.
Data set [4] relates to HEC-1B cell line. The data set is described as follows: Antiproliferative activity against human HEC1B cells assessed as inhibition of cell viability by CCK8 assay. The data set is classed as functional, cell-based.
The test system of data set [5] is AN3-CA. The data set is described as follows: Antiproliferative activity against human AN3CA cells assessed as inhibition of cell viability by CCK8 assay. Format: functional, cell-based.
Data set [6] concerns Ishikawa. The data set can be described thus: Inhibition of colony formation in progesterone sensitive human Ishikawa cells at 20 to 30 uM. The data set is classed as functional, cell-based.
For data set [7], the system named is Ishikawa. The data set is described as follows: Antimigratory activity against progesterone sensitive human Ishikawa cells assessed as inhibition of cell migration at 10 uM after 48 hrs by transwell assay. Format: functional, cell-based.
The subject of data set [8] is KLE. The data set is described as follows: Antimigratory activity against progesterone-resistant human KLE cells assessed as reduction in cell migration at 10 uM after 48 hrs by transwell assay. Format: functional, cell-based.
For data set [9], the system named is Ishikawa. The data set is described as follows: Antitumor activity against human Ishikawa cells xenografted in mouse assessed as tumor growth inhibition at 30 mg/kg measured after 28 days relative to control. Conditions: 672 h, read-out: GI. The data set is classed as functional. On the technique in general: Xenograft models place foreign cells or tissue in a host animal.

Data set [10] deals with Ishikawa. The data set can be described thus: Potency index, ratio of medroxyprogesterone acetate IC50 to test compound IC50 for antiproliferative activity against human Ishikawa cells assessed as inhibition of cell viability by CCK8 assay. The data set is classed as functional.
Data set [11] concerns KLE. The data set is described as follows: Potency index, ratio of medroxyprogesterone acetate IC50 to test compound IC50 for antiproliferative activity against human KLE cells assessed as inhibition of cell viability by CCK8 assay. Format: functional.
Data set [12] deals with HEC-1-A. The data set is described as follows: Potency index, ratio of medroxyprogesterone acetate IC50 to test compound IC50 for antiproliferative activity against human Hec1A cells assessed as inhibition of cell viability by CCK8 assay. The data set is classed as functional.
In data set [13] the test system is HEC-1B cell line. The data set is described as follows: Potency index, ratio of medroxyprogesterone acetate IC50 to test compound IC50 for antiproliferative activity against human HEC1B cells assessed as inhibition of cell viability by CCK8 assay. The data set is classed as functional.
The subject of data set [14] is AN3-CA. The data set is described as follows: Potency index, ratio of medroxyprogesterone acetate IC50 to test compound IC50 for antiproliferative activity against human AN3CA cells assessed as inhibition of cell viability by CCK8 assay. The data set is classed as functional.
Data set [15] concerns Ishikawa. The data set can be described thus: Inhibition of colony formation in progesterone sensitive human Ishikawa cells. The data set is classed as functional, cell-based.
In data set [16] the test system is KLE. The data set can be described thus: Inhibition of colony formation in progesterone resistant human KLE cells. The data set is classed as functional, cell-based.
The test system of data set [17] is Ishikawa. The data set is described as follows: Induction of apoptosis in progesterone-sensitive human Ishikawa cells assessed as early apoptotic cells at 10 uM after 48 hrs by Annexin-V/PI staining based flow cytometry (reference value: 1.92%). The data set is classed as functional. (Flow cytometry measures light scatter and fluorescence of single cells or particles in a stream.)

In data set [18] the test system is Ishikawa. The data set can be described thus: Induction of apoptosis in progesterone-sensitive human Ishikawa cells assessed as late apoptotic cells at 10 uM after 48 hrs by Annexin-V/PI staining based flow cytometry (reference value: 3.56%). The data set is classed as functional.
The subject of data set [19] is Ishikawa. The data set can be described thus: Induction of apoptosis in progesterone-sensitive human Ishikawa cells assessed as necrotic cells at 10 uM after 48 hrs by Annexin-V/PI staining based flow cytometry (reference value: 1.21%). The data set is classed as functional.
Data set [20] has as its system Ishikawa. The data set is described as follows: Induction of apoptosis in progesterone-sensitive human Ishikawa cells assessed as early apoptotic cells at 20 uM after 48 hrs by Annexin-V/PI staining based flow cytometry (reference value: 1.92%). Format: functional.
The subject of data set [21] is Ishikawa. The data set can be described thus: Induction of apoptosis in progesterone-sensitive human Ishikawa cells assessed as late apoptotic cells at 20 uM after 48 hrs by Annexin-V/PI staining based flow cytometry (reference value: 3.56%). Format: functional.
Data set [22] has as its system Ishikawa. The data set can be described thus: Induction of apoptosis in progesterone-sensitive human Ishikawa cells assessed as necrotic cells at 20 uM after 48 hrs by Annexin-V/PI staining based flow cytometry (reference value: 1.21%). The data set is classed as functional.
The subject of data set [23] is KLE. The data set can be described thus: Induction of apoptosis in progesterone-resistant human KLE cells assessed as early apoptotic cells at 10 uM after 48 hrs by Annexin-V/PI staining based flow cytometry (reference value: 2.85%). Format: functional.
Data set [24] has as its system KLE. The data set is described as follows: Induction of apoptosis in progesterone-resistant human KLE cells assessed as late apoptotic cells at 10 uM after 48 hrs by Annexin-V/PI staining based flow cytometry (reference value: 3.56%). The data set is classed as functional.
For data set [25], the system named is KLE. The data set can be described thus: Induction of apoptosis in progesterone-resistant human KLE cells assessed as necrotic cells at 10 uM after 48 hrs by Annexin-V/PI staining based flow cytometry (reference value: 1.30%). Format: functional.
The subject of data set [26] is KLE. The data set is described as follows: Induction of apoptosis in progesterone-resistant human KLE cells assessed as early apoptotic cells at 20 uM after 48 hrs by Annexin-V/PI staining based flow cytometry (reference value: 2.85%). Format: functional.
Data set [27] concerns KLE. The data set is described as follows: Induction of apoptosis in progesterone-resistant human KLE cells assessed as late apoptotic cells at 20 uM after 48 hrs by Annexin-V/PI staining based flow cytometry (reference value: 3.56%). Format: functional.
Data set [28] has as its system KLE. The data set is described as follows: Induction of apoptosis in progesterone-resistant human KLE cells assessed as necrotic cells at 20 uM after 48 hrs by Annexin-V/PI staining based flow cytometry (reference value: 1.30%). Format: functional.
Data set [29] relates to Ishikawa. The data set is described as follows: Induction of apoptosis in progesterone-sensitive human Ishikawa cells after 48 hrs by Annexin-V/PI staining based flow cytometry. The data set is classed as functional, cell-based.
Data set [30] deals with KLE. The data set can be described thus: Induction of apoptosis in progesterone-resistant human KLE cells after 48 hrs by Annexin-V/PI staining based flow cytometry. The data set is classed as functional, cell-based.
Data set [31] addresses RAC-alpha serine/threonine-protein kinase (Homo sapiens) (UniProt P31749). The data set is described as follows: Inhibition of AKT phosphorylation at ser 473 residue in human Ishikawa cells at 20 uM after 48 hrs by Western blot analysis. Format: cell-based.
Data set [32] shares this target. The data set can be described thus: Inhibition of AKT phosphorylation at ser 473 residue in human KLE cells at 20 uM after 48 hrs by Western blot analysis. The data set is classed as cell-based.
Data set [33] concerns Ishikawa. The data set can be described thus: Antitumor activity against human Ishikawa cells xenografted in mouse assessed as tumor growth inhibition at 3 mg/kg measured after 28 days relative to control. The data set is classed as functional. As to conditions: 672 h, read-out: GI.
Data set [34] has as its system Ishikawa. The data set can be described thus: Antitumor activity against human Ishikawa cells xenografted in mouse assessed as tumor growth inhibition at 15 mg/kg measured after 28 days relative to control. Format: functional. Conditions: 672 h, read-out: GI.
Data set [35] is described as follows: Toxicity in mouse xenografted with human Ishikawa cells assessed as effect on body weight at 3 to 15 mg/kg after 28 days. The data set is classed as organism-based. As to conditions: in vivo, 672 h.

RAC-alpha serine/threonine-protein kinase (Homo sapiens), sequence (P31749 whole entry): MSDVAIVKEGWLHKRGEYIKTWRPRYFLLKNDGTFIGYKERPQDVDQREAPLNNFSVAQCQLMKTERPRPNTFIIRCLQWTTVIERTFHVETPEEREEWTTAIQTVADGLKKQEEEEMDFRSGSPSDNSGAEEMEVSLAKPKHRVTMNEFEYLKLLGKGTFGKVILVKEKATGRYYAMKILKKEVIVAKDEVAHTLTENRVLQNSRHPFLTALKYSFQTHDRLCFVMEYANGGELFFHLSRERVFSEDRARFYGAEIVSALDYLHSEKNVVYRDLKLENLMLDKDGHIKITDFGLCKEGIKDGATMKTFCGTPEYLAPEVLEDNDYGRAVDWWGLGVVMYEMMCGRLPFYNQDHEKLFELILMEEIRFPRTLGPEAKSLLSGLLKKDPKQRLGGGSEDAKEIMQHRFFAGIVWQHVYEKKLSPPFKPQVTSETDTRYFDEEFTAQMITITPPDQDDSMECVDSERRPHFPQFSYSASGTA

Regarding `CC(=O)O[C@]1(C(C)=O)CC[C@H]2[C@@H]3C[C@H](C)C4=CC(=O)CC[C@]4(C)[C@H]3CC[C@@]21C` [MEDROXYPROGESTERONE ACETATE], the pIC50 (in general, the IC50 on a negative log10 scale, so that one unit is a factor of ten) in [1] is 4.43; in [2], below 4.10; in [3] it was 4.29; in [4], 4.22; in data set [5] it was 4.43. For the same compound, the inhibition result in data set [6] and in data set [7] was “Active” in each case. Moreover, the result in [8] was inactive. In data set [9], the inhibition in vivo at 30 mg/kg was 22.6%.
On to `OCCN1CCN(CCCN2c3ccccc3Sc3ccc(Cl)cc32)CC1` [PERPHENAZINE], for which the pIC50 in data set [1] was 4.71; in [2] it was 4.51; in [3], 4.63; in [4], 4.53; in [5], 4.60. Also, the “Ratio IC50” value was 1.9 in data set [10]; above 2.6 in data set [11]; 2.2 in data set [12]; 2 in data set [13]; 1.5 in [14]. The inhibition result in [15] and in data set [16] was “Dose-dependent effect” throughout. Also, the inhibition entry in data set [7], in data set [31] and in data set [32] was “Active” in each case. Besides, the outcome in [8] was Active. Also, the Activity in data set [17] came out at 6.9%; in [18], 7.4%; in data set [19], 2.64%; in [20], 6.76%; in data set [21] it was 12.52%; in [22] it was 2.68%. For the same compound, the Activity is 4.33% in data set [23]; 7.88% in [24]; 5.45% in [25]; 6.07% in data set [26]; 11.41% in data set [27]; 2.68% in data set [28]. Also, the figures for the Activity result in data set [29], in data set [30] and in [35] were “Dose-dependent effect”, “Dose-dependent effect” and “Non-Toxic”, respectively. Further, the inhibition in vivo at 3 mg/kg in [33] was 58.1%. Besides, in [34], the inhibition in vivo at 15 mg/kg was found to be 79.9%.
